Reference: patent US9073955B2, “2-amino-4-arylthiazole compounds as TRPA1 antagonists” (Glenmark Pharmaceuticals, S.A., priority 2010, dated 2015)
Read-outs that look alike come from different tables or passages of the source. Each block holds one compound with its values, some of them ahead of it.

Experiments:
[1] = molecular target: T1, Human TRPA1 (Homo sapiens, UniProt O75762); experiment: 45Calcium uptake assay: inhibition of AITC induced cellular uptake of radioactive calcium; assay type: cell-based; settings: human TRPA1 expressing CHO cells, AITC 30 μM; for inhibition at 1 µM: read-out: Percentage inhibition at 1.0 μM; for inhibition at 10 µM: read-out: Percentage inhibition at 10.0 μM
T1 construct: expressed in transfected cells; host or cells: CHO cells (grown with 400 μg/ml G-418)
Description: The illustrative examples of the present invention were screened for TRPA1 activity according to a modified procedure described in (a) Tóth, A. et al. Life Sciences, 2003, 73, 487-498. ([…]. et al, Proc. Natl. Acad. Sci. U.S.A., 2007, 104, 13525-13530. The screening of the compounds can be carried out by other methods and procedures known to persons skilled in the art. Screening for TRPA1 Antagonist Using the ^45Calcium Uptake Assay: The inhibition of TRPA1 receptor activation was measured as inhibition of allyl isothiocyanate (AITC) induced cellular uptake of radioactive calcium. Test compounds were dissolved in 100% DMSO to prepare 10 mM stock and then diluted using plain medium with 0.1% BSA and 1.8 mM CaCl2 to get the desired concentration. The final concentration of DMSO in the reaction was 0.5% (v/v). Human TRPA1 expressing CHO cells were grown in F-12 DMEM medium with 10% FBS, 1% penicillin-streptomycin solution, and 400 μg/ml of G-418. Cells were seeded 24 h prior to the assay in 96 well plates so as to get 50,000 cells per well on the day of experiment. Cells were treated with the test compounds for 10 minutes followed by the addition of AITC at a final concentration of 30 μM and 5 μCi/ml^45Ca^+2 for 3 minutes. Cells were washed and lysed using a buffer containing 1% Triton X-100, 0.1% deoxycholate and 0.1% SDS. Radioactivity in the lysate was measured in a Packard TopCount after addition of liquid scintillant. (Toth et al, Life Sciences (2003) 73, 487-498; McNamara C R et al, Proceedings of the National Academy of Sciences, (2007) 104, 13525-13530). Concentration response curves were plotted as a % of maximal response obtained in the absence of test antagonist. IC50 values can be calculated from concentration response curve by nonlinear regression analysis using GraphPad PRISM software.

[2] = Determination of solubility by shake flask method (water); assay type: physicochemical; settings: for aqueous solubility over the parent thiazole acetamide: compared with the corresponding parent compound of formula (1); for solubility at 15 min: thermodynamic from solid, ‘P’ substituted thiazole compound, water, 37° C., shake flask
Description: About 1 mg of test substance was taken in test tube and water was added in the increment of 1 ml with shaking after addition of media (water). Solubility was observed visually also. After completion of addition of 10 ml volume of media (water), test tube containing sample solution were put on a mechanical shaker set at 37° C. and 200 rpm for shaking up to 15 minute. After shaking, content of flask was filtered through 0.45μ filter. This filtered solution is analyzed using HPLC method for quantification. A sample solution of 1 mg in 10 ml of DMSO is used as reference standard for quantifying dissolved test substance in media. Solubility is expressed as mcg/ml.
Aqueous solubility of ‘P’ substituted thiazole compounds and the parent thiazole compounds were determined using the above described procedure and the results are given Table 3.

[3] = Rat pharmacokinetic (PK) study, oral suspension; assay type: in vivo, male rats (Sprague Dawley); settings: for pharmacokinetic properties (Cmax and AUC) compared to the parent thiazole acetamide: compared with the corresponding parent compound of formula (1)
Description: PK values were obtained in male rats (strain: Sprague Dawley) orally dosed with the compounds of the present invention as suspension. Accurately weighed quantity of compound of present invention (corrected for purity and salt factor) was transferred into a clean and dry mortar. To this mortar was added 2.5 μL/mL Tween 80 and triturated until the compound gets properly wet. To this, 0.5% (w/v) methyl cellulose suspension was added in geometric proportions and triturated thoroughly to form a uniform suspension.
Animals were provided with food and water ad libitum through out the study period. Animals were dosed orally with the compounds using a gavage needle at 10 mL/kg body weight. Blood samples (250 μl approx.) were collected from male Sprague Dawley retro orbital sinus using rat capillary tubes into 0.6 mL eppendorf tubes with tripotassium ethylenediaminetetraacetic acid (K3 EDTA) (25 μL) as anticoagulant. Samples were collected at 0.5, 1.0, 2.0, 4.0, 6.0, 8.0, 12.0 and 24.0 hr post dosing for compounds. Then samples were centrifuged immediately at 1000 g for 10 min. at 4° C. Plasma samples were separated and stored at −70° C. till analysis. Samples were processed and analyzed using LCMS/MS. Pharmacokinetic parameters were calculated using Winonlin software. Table 4 provides the pK values (Cmax, AUC) obtained in these studies.

T1 sequence (O75762 whole entry): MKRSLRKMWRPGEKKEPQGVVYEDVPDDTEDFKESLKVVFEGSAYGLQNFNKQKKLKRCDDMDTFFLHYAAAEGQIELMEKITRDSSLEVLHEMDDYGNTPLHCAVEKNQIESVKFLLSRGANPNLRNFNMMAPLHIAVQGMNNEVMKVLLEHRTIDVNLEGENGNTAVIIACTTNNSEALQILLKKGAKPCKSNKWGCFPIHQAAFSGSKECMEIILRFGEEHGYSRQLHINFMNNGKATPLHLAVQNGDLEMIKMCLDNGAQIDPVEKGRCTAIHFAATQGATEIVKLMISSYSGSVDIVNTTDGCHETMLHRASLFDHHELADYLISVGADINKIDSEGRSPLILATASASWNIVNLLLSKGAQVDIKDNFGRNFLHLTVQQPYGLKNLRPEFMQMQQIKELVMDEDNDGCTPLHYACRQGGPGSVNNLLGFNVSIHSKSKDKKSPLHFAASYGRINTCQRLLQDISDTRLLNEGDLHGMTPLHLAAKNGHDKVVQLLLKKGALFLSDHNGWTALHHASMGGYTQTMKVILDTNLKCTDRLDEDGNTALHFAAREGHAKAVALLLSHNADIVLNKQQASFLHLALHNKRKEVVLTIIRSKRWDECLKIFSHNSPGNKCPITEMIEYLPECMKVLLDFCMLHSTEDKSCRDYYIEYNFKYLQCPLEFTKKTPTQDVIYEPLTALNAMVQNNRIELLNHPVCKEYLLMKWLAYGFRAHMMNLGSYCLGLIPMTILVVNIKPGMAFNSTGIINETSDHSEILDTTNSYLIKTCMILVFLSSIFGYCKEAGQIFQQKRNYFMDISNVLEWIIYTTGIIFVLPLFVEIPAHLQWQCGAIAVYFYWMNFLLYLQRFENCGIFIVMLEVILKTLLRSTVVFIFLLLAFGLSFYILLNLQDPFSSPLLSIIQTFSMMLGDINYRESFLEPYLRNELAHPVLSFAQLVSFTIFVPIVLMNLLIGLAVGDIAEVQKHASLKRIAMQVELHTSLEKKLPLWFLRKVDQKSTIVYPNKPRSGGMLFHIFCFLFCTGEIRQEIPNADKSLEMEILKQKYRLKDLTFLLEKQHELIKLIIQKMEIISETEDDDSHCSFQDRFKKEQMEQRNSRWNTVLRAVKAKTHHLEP

Structure (SMILES): Cl.Cn1c(=O)c2c(CC(=O)/N=c3\scc(-c4ccc(F)c(C(F)(F)F)c4F)n3COC(=O)CN)csc2n(C)c1=O [Example 3, [4-[2,4-Difluoro-3-(trifluoromethyl)phenyl]-2-{[(1,3-dimethyl-2,4-dioxo-1,2,3,4-tetrahydrothieno[2,3-d]pyrimidin-5-yl)acetyl]imino}-1,3-thiazol-3 (2H)-yl]methyl glycinate hydrochloride]
- inhibition at 1 µM ([1]; 1.0 μM): 100%
- inhibition at 10 µM ([1]; 10.0 μM): 99.9%
- IC50 [1]: < 100 nM
- aqueous solubility over the parent thiazole acetamide [2]: better aqueous solubility

Structure (SMILES): CC[C@H](C)[C@H](N)C(=O)OCn1c(-c2ccc(C(F)(F)F)c(F)c2)cs/c1=N\C(=O)Cc1csc2c1c(=O)n(C)c(=O)n2C.Cl [Example 6, [2-{[(1,3-Dimethyl-2,4-dioxo-1,2,3,4-tetrahydrothieno[2,3-d]pyrimidin-5-yl)acetyl]imino}-4-[3-fluoro-4-(trifluoromethyl)phenyl]-1,3-thiazol-3(2H)-yl]methyl L-isoleucinate hydrochloride]
- inhibition at 1 µM ([1]; 1.0 μM): 89.8%
- inhibition at 10 µM ([1]; 10.0 μM): 98.6%
- IC50 [1]: 100 to 500 nM
- pharmacokinetic properties (Cmax and AUC) compared to the parent thiazole acetamide [3]: better pharmacokinetic properties

Structure (SMILES): CC[C@H](C)[C@H](N)C(=O)OCn1c(-c2ccc(F)c(C(F)(F)F)c2F)cs/c1=N\C(=O)Cc1csc2c1c(=O)n(C)c(=O)n2C.Cl [Example 7, [4-[2,4-Difluoro-3-(trifluoromethyl)phenyl]-2-{[(1,3-dimethyl-2,4-dioxo-1,2,3,4-tetrahydrothieno[2,3-d]pyrimidin-5-yl)acetyl]imino}-1,3-thiazol-3 (2H)-yl]methyl L-isoleucinate hydrochloride]
- inhibition at 1 µM ([1]; 1.0 μM): 98.6%
- inhibition at 10 µM ([1]; 10.0 μM): 99.6%
- IC50 [1]: < 100 nM
- pharmacokinetic properties (Cmax and AUC) compared to the parent thiazole acetamide [3]: better pharmacokinetic properties

Structure (SMILES): Cl.Cn1c(=O)c2c(CC(=O)/N=c3\scc(-c4ccc(F)c(C(F)(F)F)c4F)n3COC(=O)C3CCNCC3)csc2n(C)c1=O [Example 10, [4-[2,4-Difluoro-3-(trifluoromethyl)phenyl]-2-{[(1,3-dimethyl-2,4-dioxo-1,2,3,4-tetrahydrothieno[2,3-d]pyrimidin-5-yl)acetyl]imino}-1,3-thiazol-3(2H)-yl]methyl piperidine-4-carboxylate hydrochloride]
- inhibition at 1 µM ([1]; 1.0 μM): 90.5%
- inhibition at 10 µM ([1]; 10.0 μM): 89.3%
- IC50 [1]: 100 to 500 nM
- aqueous solubility over the parent thiazole acetamide [2]: better aqueous solubility
- solubility at 15 min [2]: > 29 µg/mL

Structure (SMILES): Cn1c(=O)c2c(CC(=O)/N=c3\scc(-c4ccc(F)c(C(F)(F)F)c4F)n3COP(=O)(O)O)csc2n(C)c1=O [Example 13, [4-[2,4-Difluoro-3-(trifluoromethyl)phenyl]-2-{[(1,3-dimethyl-2,4-dioxo-1,2,3,4-tetrahydrothieno[2,3-d]pyrimidin-5-yl)acetyl]imino}-1,3-thiazol-3 (2H)-yl]methyl dihydrogen phosphate]
- inhibition at 1 µM ([1]; CHO, 1.0 μM): 75.3%
- inhibition at 10 µM ([1]; CHO, 10.0 μM): 99.3%
- IC50 [1]: > 500 nM
- solubility at 15 min [2]: > 2.5 µg/mL

Structure (SMILES): Cn1c(=O)c2c(CC(=O)/N=c3\scc(-c4ccc(F)c(C(F)(F)F)c4F)n3COP(=O)([O-])[O-])csc2n(C)c1=O.[Na+].[Na+] [Example 14, Disodium[4-[2,4-difluoro-3-(trifluoromethyl)phenyl]-2-{[(1,3-dimethyl-2,4-dioxo-1,2,3,4-tetrahydrothieno[2,3-d]pyrimidin-5-yl)acetyl]imino}-1,3-thiazol-3(2H)-yl]methyl phosphate]
- IC50 [1]: 100 to 500 nM
- solubility at 15 min [2]: > 1200 µg/mL

Structure (SMILES): Cc1oc2c(c1CC(=O)/N=c1\scc(-c3ccc(OC(F)(F)F)c(Cl)c3)n1COC(=O)CN)c(=O)n(C)c(=O)n2C.Cl [Example 20, [4-[3-Chloro-4-(trifluoromethoxy)phenyl]-2-{[(1,3,6-trimethyl-2,4-dioxo-1,2,3,4-tetrahydrofuro[2,3-d]pyrimidin-5-yl)acetyl]imino}-1,3-thiazol-3 (2H)-yl]methyl glycinate hydrochloride]
- inhibition at 1 µM ([1]; 1.0 μM): 96.7%
- inhibition at 10 µM ([1]; 10.0 μM): 96.2%
- IC50 [1]: < 100 nM
- pharmacokinetic properties (Cmax and AUC) compared to the parent thiazole acetamide [3]: better pharmacokinetic properties

Structure (SMILES): Cc1oc2c(c1CC(=O)/N=c1\scc(-c3ccc(OC(F)(F)F)c(Cl)c3)n1COC(=O)[C@@H](N)C(C)C)c(=O)n(C)c(=O)n2C.Cl [Example 21, [4-[3-Chloro-4-(trifluoromethoxy)phenyl]-2-{[(1,3,6-trimethyl-2,4-dioxo-1,2,3,4-tetrahydrofuro[2,3-d]pyrimidin-5-yl)acetyl]imino}-1,3-thiazol-3(2H)-yl]methyl L-valinate hydrochloride]
- inhibition at 1 µM ([1]; CHO, 1.0 μM): 93.8%
- inhibition at 10 µM ([1]; CHO, 10.0 μM): 99.9%
- IC50 [1]: < 100 nM
- pharmacokinetic properties (Cmax and AUC) compared to the parent thiazole acetamide [3]: better pharmacokinetic properties

The remaining lines, values ahead:

- inhibition at 1 µM ([1]; 1.0 μM): 91.2%
- inhibition at 10 µM ([1]; 10.0 μM): 97.8%
- IC50 [1]: 100 to 500 nM
- pharmacokinetic properties (Cmax and AUC) compared to the parent thiazole acetamide [3]: better pharmacokinetic properties
Structure (SMILES): Cc1oc2c(c1CC(=O)/N=c1\scc(-c3ccc(OC(F)(F)F)c(Cl)c3)n1COC(=O)C1CCNCC1)c(=O)n(C)c(=O)n2C.Cl [Example 23, [4-[3-Chloro-4-(trifluoromethoxy)phenyl]-2-{[(1,3,6-trimethyl-2,4-dioxo-1,2,3,4-tetrahydrofuro[2,3-d]pyrimidin-5-yl)acetyl]imino}-1,3-thiazol-3 (2H)-yl]methyl piperidine-4-carboxylate hydrochloride]

- Percentage inhibition at 1.0 μM ([1]; 1.0 μM): 12.64%
- Percentage inhibition at 10.0 μM ([1]; 10.0 μM): 96.25%
- solubility at 15 min [2]: > 75 µg/mL
Structure (SMILES): Cc1oc2c(c1CC(=O)/N=c1\scc(-c3ccc(OC(F)(F)F)c(Cl)c3)n1COP(=O)([O-])[O-])c(=O)n(C)c(=O)n2C.[Na+].[Na+] [Example 26, Disodium[4-[3-chloro-4-(trifluoromethoxy)phenyl]-2-{[(1,3,6-trimethyl-2,4-dioxo-1,2,3,4-tetrahydrofuro[2,3-d]pyrimidin-5-yl)acetyl]imino}-1,3-thiazol-3 (2H)-yl]methyl phosphate]

- IC50 [1]: > 500 nM
- solubility at 15 min [2]: > 110 µg/mL
Structure (SMILES): Cn1nc2c(c1CC(=O)N=c1scc(-c3ccc(F)c(C(F)(F)F)c3F)n1COP(=O)([O-])[O-])c(=O)n(C)c(=O)n2C.[Na+].[Na+] [Example 29, Disodium-(4-(2,4-difluoro-3-(trifluoromethyl)phenyl)-2-((2-(2,5,7-trimethyl-4,6-dioxo-4,5,6,7-tetrahydro-2H-pyrazolo[3,4-d]pyrimidin-3-yl)acetyl)imino)thiazol-3 (2H)-yl)methyl phosphate]

- Cmax ([3]; rat, plasma, parent thiazole compound of the example, male Sprague Dawley rats, oral suspension): < 250 ng/mL
- AUC(0-t) ([3]; rat, plasma, parent thiazole compound of the example, male Sprague Dawley rats, oral suspension, read-out: AUC0-24): < 2500 ng·h/mL
Structure (SMILES): Cn1c(=O)c2c(CC(=O)Nc3nc(-c4ccc(C(F)(F)F)c(F)c4F)cs3)nsc2n(C)c1=O [parent of Example 31, N-{4-[2,3-difluoro-4-(trifluoromethyl)phenyl]-1,3-thiazol-2-yl}-2-(5,7-dimethyl-4,6-dioxo-4,5,6,7-tetrahydro[1,2]thiazolo[5,4-d]pyrimidin-3-yl)acetamide, reference compound]
